According to US5234907A, “Synthetic vasoactive intestinal peptide analogs” (Hoffmann-La Roche Inc., priority 1991, dated 1993):
*1 amine or outer side, *2 acyl side, *3 side chain or, on linkers, in order; H or OH if unused. [ ]: non-standard residue; d: D form. Cys(Acm) = CC(=O)NCSC[C@H](N[*:1])C(=O)[*:2]; Phe(4-F) = N[C@@H](Cc1ccc(F)cc1)C(=O)O; Nle = CCCC[C@H](N)C(=O)O; Orn = NCCC[C@H](N)C(=O)O

Key:
[1] = test system: guinea pig tracheal smooth muscle; assay: Tracheal relaxant activity of VIP analogs on isolated guinea pig tracheal rings; assay type: cell-based; conditions: cumulative concentration response; responses as % of maximum response to VIP (10^-6 M=100%); at least three tissues pooled; linear regression
Procedure: The relaxant activity of the VIP analogs was studied in a model utilizing guinea pig trachea. [Wasserman, M. A. et al., in Vasoactive Intestinal Peptide, S. I. Said, ed., Raven Press, N.Y. 1982, pp 177-184]; All tissues were taken from male albino guinea pig weighing 400-600 g, anesthesized with urethane (2 g/kg, i.p.). After exanguination, the trachea were removed and divided into four ring segments (3 mm length). Each ring was suspended by 30 gauge stainless steel wires in a 10 mL jacketed tissue bath and attached via 4-0 silk thread to a Grass force displacement transducer (model FT03C, Grass Instruments Co., Quincy, Ma), for isometric recording of tension. The smooth muscle was bathed in modified Krebs solution of the following composition: NaCl, 120 mM; KCl, 4.7 mM; CaCl2, 2.5 mM; MgSO.4 7H2 O, 1.2 mM; NaHCO3, 25 mM; K2 HPO4 monobasic, 1.2 mM; and dextrose, 10 mM. Tissue baths were maintained at 37° C. and constantly bubbled with 95% O2 and 5% CO2. Responses were recorded on an 8 channel and a 4 channel Hewlett-Packard (model 7702B and 7754A, respectively) recorder (Hewlett-Packard, Paramus, N.J.). […] Frequent readjustments of tension were required during the 60 minute stabilization period which followed. Tissues were rinsed at 15 minute intervals.
Cumulative concentration response curves were obtained for each tissue by successive […] increases in the bath concentration of VIP or VIP analogs according to the method of VanRossum [Arch. Int. Pharmacodyn., 143, 299-330 (1963)]. Only one cumulative dose response curve was obtained on a single tissue. To minimize variability between tissues, relaxant responses were expressed as a percentage of the maximum response obtained to VIP (10^-6 M=100%) added at the end of each concentration response experiment. Responses obtained from at least three tissues were pooled and EC50 values were determined by linear regression.

guinea pigs = assay: In vivo bronchodilator activity by tracheal instillation against histamine-induced bronchoconstriction; design: species or system guinea pig; conditions: 100 μl, anesthetized male Hartley guinea pigs, histamine challenge 50 μg/kg i.v., inhibition of tracheal pressure increase
Procedure: The in vivo bronchodilator activity of VIP analogs in guinea pigs was assessed by the tracheal instillation route of administration. This technique utilized male guinea pigs (Hartley strain, Charles River) weighing 400-600 g. Animals were anesthetized with urethane (2 g/kg) intraperitoneally and a polyethylene cannula was inserted into the jugular vein for intravenous drug administration.
The animals were tracheotomized and dosing solutions of distilled water or test compound dissolved in distilled water were administered into the trachea, approximately three-quarter the distance to the carina with a pipette. The concentration of the dosing solution was adjusted to deliver a constant volume of 100 μl. The animals were placed supine for one minute to aid drug delivery to the lung. One minute later, spontaneous breathing was arrested with succinylcholine chloride (1.2 mg/kg) administered intravenously, and the animals were ventilized with a Harvard Model 680 small animal respirator set at 40 breaths/min and 4.0 cm^3 stoke volume. The animals were challenged with a maximal constrictory dose of histamine (50 μg/kg, i.v.) and tracheal pressure (cm of water) was recorded from a Statham pressure transducer (P 32 AA).
The change in tracheal pressure was averaged for at least 3 control and 3 drug-treated animals and percent inhibition was calculated. The relative potency of compounds administered by the instillation route was determined by administering various doses of test compound and calculating the median inhibitory dose (ID50 value). The ID50 was determined from log dose-reasons curves generated by at least 3 doses that caused inhibitory effects between 10% and 90%. The correlation coefficient for the regression line of each antagonist was always greater than 0.95.
For determination of the time course of inhibition for various compounds, the time between administration of compound and challenge with histamine was varied. The time course of activity was calculated as the time when inhibition decreased to 40%.

Substance | EC50 [1] [nM] | Bronchodilator activity in guinea pigs, ED50 (guinea pigs) [µg]
Ac--[Glu^8, Lys^12, Nle^17, Ala^19, Ala^25, Leu^26, Lys^27,28, Ala^29-31 ]--VIP (Ac-HSDAVFTENYTKLRKQ[Nle]AAKKYLNALKKAAA-NH2; SMILES CCCC[C@H](NC(=O)[C@H](CCC(N)=O)NC(=O)[C@H](CCCCN)NC(=O)[C@H](CCCNC(=N)N)NC(=O)[C@H](CC(C)C)NC(=O)[C@H](CCCCN)NC(=O)[C@@H](NC(=O)[C@H](Cc1ccc(O)cc1)NC(=O)[C@H](CC(N)=O)NC(=O)[C@H](CCC(=O)O)NC(=O)[C@@H](NC(=O)[C@H](Cc1ccccc1)NC(=O)[C@@H](NC(=O)[C@H](C)NC(=O)[C@H](CC(=O)O)NC(=O)[C@H](CO)NC(=O)[C@H](Cc1c[nH]cn1)NC(C)=O)C(C)C)[C@@H](C)O)[C@@H](C)O)C(=O)N[C@@H](C)C(=O)N[C@@H](C)C(=O)N[C@@H](CCCCN)C(=O)N[C@@H](CCCCN)C(=O)N[C@@H](Cc1ccc(O)cc1)C(=O)N[C@@H](CC(C)C)C(=O)N[C@@H](CC(N)=O)C(=O)N[C@@H](C)C(=O)N[C@@H](CC(C)C)C(=O)N[C@@H](CCCCN)C(=O)N[C@@H](CCCCN)C(=O)N[C@@H](C)C(=O)N[C@@H](C)C(=O)N[C@@H](C)C(N)=O) [Ac--(SEQ ID NO: 21)--NH2] | 0.1 | 0.03
Ac--[Glu^8, Lys^12, Nle^17, Ala^19, Val^26, Thr^28, Gly^29,30, Thr^31 ]--VIP (Ac-HSDAVFTENYTKLRKQ[Nle]AAKKYLNSVLTGGT-NH2; SMILES CCCC[C@H](NC(=O)[C@H](CCC(N)=O)NC(=O)[C@H](CCCCN)NC(=O)[C@H](CCCNC(=N)N)NC(=O)[C@H](CC(C)C)NC(=O)[C@H](CCCCN)NC(=O)[C@@H](NC(=O)[C@H](Cc1ccc(O)cc1)NC(=O)[C@H](CC(N)=O)NC(=O)[C@H](CCC(=O)O)NC(=O)[C@@H](NC(=O)[C@H](Cc1ccccc1)NC(=O)[C@@H](NC(=O)[C@H](C)NC(=O)[C@H](CC(=O)O)NC(=O)[C@H](CO)NC(=O)[C@H](Cc1c[nH]cn1)NC(C)=O)C(C)C)[C@@H](C)O)[C@@H](C)O)C(=O)N[C@@H](C)C(=O)N[C@@H](C)C(=O)N[C@@H](CCCCN)C(=O)N[C@@H](CCCCN)C(=O)N[C@@H](Cc1ccc(O)cc1)C(=O)N[C@@H](CC(C)C)C(=O)N[C@@H](CC(N)=O)C(=O)N[C@@H](CO)C(=O)N[C@H](C(=O)N[C@@H](CC(C)C)C(=O)N[C@H](C(=O)NCC(=O)NCC(=O)N[C@H](C(N)=O)[C@@H](C)O)[C@@H](C)O)C(C)C) [Ac--(SEQ ID NO: 15)--NH2] | 0.55 | 0.064
Ac--[Glu^8, Lys^12, Nle^17, Ala^25, Leu^26, Lys^27,28, Gly^29,30, Thr^31 ]--VIP (Ac-HSDAVFTENYTKLRKQ[Nle]AVKKYLNALKKGGT-NH2; SMILES CCCC[C@H](NC(=O)[C@H](CCC(N)=O)NC(=O)[C@H](CCCCN)NC(=O)[C@H](CCCNC(=N)N)NC(=O)[C@H](CC(C)C)NC(=O)[C@H](CCCCN)NC(=O)[C@@H](NC(=O)[C@H](Cc1ccc(O)cc1)NC(=O)[C@H](CC(N)=O)NC(=O)[C@H](CCC(=O)O)NC(=O)[C@@H](NC(=O)[C@H](Cc1ccccc1)NC(=O)[C@@H](NC(=O)[C@H](C)NC(=O)[C@H](CC(=O)O)NC(=O)[C@H](CO)NC(=O)[C@H](Cc1c[nH]cn1)NC(C)=O)C(C)C)[C@@H](C)O)[C@@H](C)O)C(=O)N[C@@H](C)C(=O)N[C@H](C(=O)N[C@@H](CCCCN)C(=O)N[C@@H](CCCCN)C(=O)N[C@@H](Cc1ccc(O)cc1)C(=O)N[C@@H](CC(C)C)C(=O)N[C@@H](CC(N)=O)C(=O)N[C@@H](C)C(=O)N[C@@H](CC(C)C)C(=O)N[C@@H](CCCCN)C(=O)N[C@@H](CCCCN)C(=O)NCC(=O)NCC(=O)N[C@H](C(N)=O)[C@@H](C)O)C(C)C) [Ac--(SEQ ID NO: 16)--NH2] | 0.27 | 0.043
Ac--[Glu^8, Lys^12, Nle^17, Val^26, Thr^28, Gly^29,30, Cys(Acm)^31 ]--VIP (Ac-HSDAVFTENYTKLRKQ[Nle]AVKKYLNSVLTGG[Cys(Acm)]-NH2; SMILES CCCC[C@H](NC(=O)[C@H](CCC(N)=O)NC(=O)[C@H](CCCCN)NC(=O)[C@H](CCCNC(=N)N)NC(=O)[C@H](CC(C)C)NC(=O)[C@H](CCCCN)NC(=O)[C@@H](NC(=O)[C@H](Cc1ccc(O)cc1)NC(=O)[C@H](CC(N)=O)NC(=O)[C@H](CCC(=O)O)NC(=O)[C@@H](NC(=O)[C@H](Cc1ccccc1)NC(=O)[C@@H](NC(=O)[C@H](C)NC(=O)[C@H](CC(=O)O)NC(=O)[C@H](CO)NC(=O)[C@H](Cc1c[nH]cn1)NC(C)=O)C(C)C)[C@@H](C)O)[C@@H](C)O)C(=O)N[C@@H](C)C(=O)N[C@H](C(=O)N[C@@H](CCCCN)C(=O)N[C@@H](CCCCN)C(=O)N[C@@H](Cc1ccc(O)cc1)C(=O)N[C@@H](CC(C)C)C(=O)N[C@@H](CC(N)=O)C(=O)N[C@@H](CO)C(=O)N[C@H](C(=O)N[C@@H](CC(C)C)C(=O)N[C@H](C(=O)NCC(=O)NCC(=O)N[C@@H](CSCNC(C)=O)C(N)=O)[C@@H](C)O)C(C)C)C(C)C) [Ac--(SEQ ID NO: 85)--NH2] | 0.45 | 2.0
Ac--[Leu^5, p-F--Phe^6, Glu^8, Orn^12, Ala^17,19, Thr^25, Val^26, Thr^28, Gly^29,30, Cys(Acm)^31 ]--VIP (Ac-HSDAL[Phe(4-F)]TENYT[Orn]LRKQAAAKKYLNTVLTGG[Cys(Acm)]-NH2; SMILES CC(=O)NCSC[C@H](NC(=O)CNC(=O)CNC(=O)[C@@H](NC(=O)[C@H](CC(C)C)NC(=O)[C@@H](NC(=O)[C@@H](NC(=O)[C@H](CC(N)=O)NC(=O)[C@H](CC(C)C)NC(=O)[C@H](Cc1ccc(O)cc1)NC(=O)[C@H](CCCCN)NC(=O)[C@H](CCCCN)NC(=O)[C@H](C)NC(=O)[C@H](C)NC(=O)[C@H](C)NC(=O)[C@H](CCC(N)=O)NC(=O)[C@H](CCCCN)NC(=O)[C@H](CCCNC(=N)N)NC(=O)[C@H](CC(C)C)NC(=O)[C@H](CCCN)NC(=O)[C@@H](NC(=O)[C@H](Cc1ccc(O)cc1)NC(=O)[C@H](CC(N)=O)NC(=O)[C@H](CCC(=O)O)NC(=O)[C@@H](NC(=O)[C@H](Cc1ccc(F)cc1)NC(=O)[C@H](CC(C)C)NC(=O)[C@H](C)NC(=O)[C@H](CC(=O)O)NC(=O)[C@H](CO)NC(=O)[C@H](Cc1c[nH]cn1)NC(C)=O)[C@@H](C)O)[C@@H](C)O)[C@@H](C)O)C(C)C)[C@@H](C)O)C(N)=O) [Ac--(SEQ ID NO: 13)--NH2] | 0.68 | 0.09
Ac--[Lys^12, Nle^17, Ala^19, Ala^25, Leu^26, Lys^27,28 ]--VIP (Ac-HSDAVFTDNYTKLRKQ[Nle]AAKKYLNALKK-NH2; SMILES CCCC[C@H](NC(=O)[C@H](CCC(N)=O)NC(=O)[C@H](CCCCN)NC(=O)[C@H](CCCNC(=N)N)NC(=O)[C@H](CC(C)C)NC(=O)[C@H](CCCCN)NC(=O)[C@@H](NC(=O)[C@H](Cc1ccc(O)cc1)NC(=O)[C@H](CC(N)=O)NC(=O)[C@H](CC(=O)O)NC(=O)[C@@H](NC(=O)[C@H](Cc1ccccc1)NC(=O)[C@@H](NC(=O)[C@H](C)NC(=O)[C@H](CC(=O)O)NC(=O)[C@H](CO)NC(=O)[C@H](Cc1c[nH]cn1)NC(C)=O)C(C)C)[C@@H](C)O)[C@@H](C)O)C(=O)N[C@@H](C)C(=O)N[C@@H](C)C(=O)N[C@@H](CCCCN)C(=O)N[C@@H](CCCCN)C(=O)N[C@@H](Cc1ccc(O)cc1)C(=O)N[C@@H](CC(C)C)C(=O)N[C@@H](CC(N)=O)C(=O)N[C@@H](C)C(=O)N[C@@H](CC(C)C)C(=O)N[C@@H](CCCCN)C(=O)N[C@@H](CCCCN)C(N)=O) [Ac--(SEQ ID NO: 12)--NH2] | 1.5 | 0.014
